Source: patent publication US20230027026A1, “FUSED PYRIMIDINE COMPOUNDS, COMPOSITIONS AND MEDICINAL APPLICATIONS THEREOF” (JUBILANT BIOSYS LIMITED, priority 2019, published 2023)

Columns and labels:
A431 cells = assay: Cellular proliferation (Alamar Blue) assay, A431; assay type: cell-based; settings: Homo sapiens, A-431; A431 cells, 72 hr, Alamar Blue; read-out: A431 IC50
Method in brief: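 Following a 16–18 h pre-incubation, cells received compound or DMSO for 72 h at 37 °C across a 10–0.0005 μM final range. Proliferation was then scored by Alamar Blue fluorescence (540 nm excitation, 590 nm emission) after 3 h.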

[1] = system: H1975 cells (L858R_T790M mutant); assay: H1975 proliferation assay; assay type: cell-based; settings: Homo sapiens, NCI-H1975; read-out: Proliferation_Assay H1975 cells-EC50_nM L858R_T790M_mutant
[2] = molecular target: EGFR(D770_N771insSVD) expressing Ba/F3 stable cell line (Homo sapiens, UniProt P00533, DUP768-770, cells depend on it); assay: Cellular proliferation (Alamar Blue) assay, EGFR D770_N771insSVD Ba/F3; assay type: cell-based; settings: EGFR D770_N771insSVD Ba/F3, 72 hr, read-out: D770 IC50
EGFR(D770_N771insSVD) expressing Ba/F3 stable cell line, sequence (P00533 with tags, fused parts or gaps DUP768-770): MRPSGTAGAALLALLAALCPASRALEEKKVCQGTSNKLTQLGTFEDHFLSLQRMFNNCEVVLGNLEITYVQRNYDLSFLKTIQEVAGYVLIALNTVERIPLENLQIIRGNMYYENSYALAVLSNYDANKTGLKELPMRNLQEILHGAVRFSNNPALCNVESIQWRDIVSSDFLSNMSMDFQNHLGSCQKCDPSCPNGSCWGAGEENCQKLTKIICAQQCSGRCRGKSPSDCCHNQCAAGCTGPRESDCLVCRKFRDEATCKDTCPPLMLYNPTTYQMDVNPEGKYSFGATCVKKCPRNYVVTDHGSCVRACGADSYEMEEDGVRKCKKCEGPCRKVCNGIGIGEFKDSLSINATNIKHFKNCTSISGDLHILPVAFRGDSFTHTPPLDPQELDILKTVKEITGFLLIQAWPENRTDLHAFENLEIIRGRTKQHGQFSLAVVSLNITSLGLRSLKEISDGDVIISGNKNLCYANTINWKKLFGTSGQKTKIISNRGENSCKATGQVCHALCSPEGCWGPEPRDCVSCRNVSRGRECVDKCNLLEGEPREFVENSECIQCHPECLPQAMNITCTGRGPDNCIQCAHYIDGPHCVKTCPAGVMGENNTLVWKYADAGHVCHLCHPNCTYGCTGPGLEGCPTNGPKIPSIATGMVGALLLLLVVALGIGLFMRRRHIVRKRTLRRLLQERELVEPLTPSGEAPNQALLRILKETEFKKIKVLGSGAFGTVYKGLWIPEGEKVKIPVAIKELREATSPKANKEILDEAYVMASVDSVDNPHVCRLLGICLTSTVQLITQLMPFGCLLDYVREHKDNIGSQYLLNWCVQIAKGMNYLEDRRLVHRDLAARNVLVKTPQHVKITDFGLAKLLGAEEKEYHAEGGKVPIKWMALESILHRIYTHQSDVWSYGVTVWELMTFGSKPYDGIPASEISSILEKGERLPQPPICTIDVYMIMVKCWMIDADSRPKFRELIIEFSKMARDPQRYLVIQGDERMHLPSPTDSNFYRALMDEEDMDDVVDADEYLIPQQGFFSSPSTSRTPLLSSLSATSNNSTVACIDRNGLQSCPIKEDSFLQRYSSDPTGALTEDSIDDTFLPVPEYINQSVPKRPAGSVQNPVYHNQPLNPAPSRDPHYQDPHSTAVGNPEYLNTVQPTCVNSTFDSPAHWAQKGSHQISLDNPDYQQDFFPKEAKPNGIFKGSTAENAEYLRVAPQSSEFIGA
Method in brief: (§1)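 Ba/F3 lines (15,000 cells/well, RPMI with 10% FBS) expressing mutant EGFR or HER2, plus BT-474 cells, treated 72 h at 37 °C with compound at 10-0.0005 μM final, 3-fold dilutions. Viability by Alamar Blue after 3 h, fluorescence 540 nm excitation/590 nm emission.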

[3] = molecular target: EGFR (A767_dupASV) expressing Ba/F3 stable cell line (Homo sapiens, UniProt P00533, DUP767-769, cells depend on it); assay: Cellular proliferation (Alamar Blue) assay, EGFR A767_dupASV Ba/F3; assay type: cell-based; settings: EGFR A767_dupASV Ba/F3, 72 hr, read-out: A767 IC50
EGFR (A767_dupASV) expressing Ba/F3 stable cell line, sequence (P00533 with tags, fused parts or gaps DUP767-769): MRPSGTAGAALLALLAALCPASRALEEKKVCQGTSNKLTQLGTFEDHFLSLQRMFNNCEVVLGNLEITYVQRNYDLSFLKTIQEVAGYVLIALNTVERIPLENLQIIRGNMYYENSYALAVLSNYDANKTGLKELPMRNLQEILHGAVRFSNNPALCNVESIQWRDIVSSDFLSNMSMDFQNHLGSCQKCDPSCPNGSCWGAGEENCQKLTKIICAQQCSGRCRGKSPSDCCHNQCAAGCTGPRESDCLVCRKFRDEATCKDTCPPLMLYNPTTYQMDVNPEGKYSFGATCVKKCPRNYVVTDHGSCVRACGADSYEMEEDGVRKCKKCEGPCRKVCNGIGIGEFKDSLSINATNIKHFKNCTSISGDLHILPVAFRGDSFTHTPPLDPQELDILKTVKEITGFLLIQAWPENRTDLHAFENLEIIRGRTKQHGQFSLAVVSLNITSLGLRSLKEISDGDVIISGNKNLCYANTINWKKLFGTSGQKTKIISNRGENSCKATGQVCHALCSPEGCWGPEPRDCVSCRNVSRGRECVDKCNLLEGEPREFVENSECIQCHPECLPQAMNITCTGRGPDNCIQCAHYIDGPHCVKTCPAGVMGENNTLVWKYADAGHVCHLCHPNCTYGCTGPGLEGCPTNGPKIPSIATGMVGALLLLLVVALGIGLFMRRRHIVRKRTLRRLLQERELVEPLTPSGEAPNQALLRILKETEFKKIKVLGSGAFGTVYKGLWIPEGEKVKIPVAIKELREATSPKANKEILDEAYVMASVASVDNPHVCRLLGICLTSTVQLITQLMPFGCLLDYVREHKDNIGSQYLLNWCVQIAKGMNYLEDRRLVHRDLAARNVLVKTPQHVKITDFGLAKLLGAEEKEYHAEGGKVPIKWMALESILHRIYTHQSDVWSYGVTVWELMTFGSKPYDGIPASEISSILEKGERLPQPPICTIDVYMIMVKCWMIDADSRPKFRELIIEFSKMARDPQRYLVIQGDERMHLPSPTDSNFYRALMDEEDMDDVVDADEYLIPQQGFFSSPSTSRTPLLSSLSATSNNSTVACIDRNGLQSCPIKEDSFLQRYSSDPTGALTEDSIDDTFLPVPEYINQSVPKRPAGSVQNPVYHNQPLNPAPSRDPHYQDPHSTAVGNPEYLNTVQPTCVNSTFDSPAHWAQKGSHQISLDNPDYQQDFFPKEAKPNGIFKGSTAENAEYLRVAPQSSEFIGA
Method in brief: as §1

EGFR (T790M/L858R) = molecular target: T1, EGFR (T790M/L858R) (Homo sapiens, UniProt P00533, L858R/T790M); assay: EGFR L858R/T790M enzyme inhibition assay (HTRF); assay type: biochemical; settings: 5 μM ATP, 60 min, read-out: EGFR_L858R T790M_IC50_nM
T1 construct: GST; purchased Proqinase
T1 sequence (P00533 25-1210 T790M/L858R): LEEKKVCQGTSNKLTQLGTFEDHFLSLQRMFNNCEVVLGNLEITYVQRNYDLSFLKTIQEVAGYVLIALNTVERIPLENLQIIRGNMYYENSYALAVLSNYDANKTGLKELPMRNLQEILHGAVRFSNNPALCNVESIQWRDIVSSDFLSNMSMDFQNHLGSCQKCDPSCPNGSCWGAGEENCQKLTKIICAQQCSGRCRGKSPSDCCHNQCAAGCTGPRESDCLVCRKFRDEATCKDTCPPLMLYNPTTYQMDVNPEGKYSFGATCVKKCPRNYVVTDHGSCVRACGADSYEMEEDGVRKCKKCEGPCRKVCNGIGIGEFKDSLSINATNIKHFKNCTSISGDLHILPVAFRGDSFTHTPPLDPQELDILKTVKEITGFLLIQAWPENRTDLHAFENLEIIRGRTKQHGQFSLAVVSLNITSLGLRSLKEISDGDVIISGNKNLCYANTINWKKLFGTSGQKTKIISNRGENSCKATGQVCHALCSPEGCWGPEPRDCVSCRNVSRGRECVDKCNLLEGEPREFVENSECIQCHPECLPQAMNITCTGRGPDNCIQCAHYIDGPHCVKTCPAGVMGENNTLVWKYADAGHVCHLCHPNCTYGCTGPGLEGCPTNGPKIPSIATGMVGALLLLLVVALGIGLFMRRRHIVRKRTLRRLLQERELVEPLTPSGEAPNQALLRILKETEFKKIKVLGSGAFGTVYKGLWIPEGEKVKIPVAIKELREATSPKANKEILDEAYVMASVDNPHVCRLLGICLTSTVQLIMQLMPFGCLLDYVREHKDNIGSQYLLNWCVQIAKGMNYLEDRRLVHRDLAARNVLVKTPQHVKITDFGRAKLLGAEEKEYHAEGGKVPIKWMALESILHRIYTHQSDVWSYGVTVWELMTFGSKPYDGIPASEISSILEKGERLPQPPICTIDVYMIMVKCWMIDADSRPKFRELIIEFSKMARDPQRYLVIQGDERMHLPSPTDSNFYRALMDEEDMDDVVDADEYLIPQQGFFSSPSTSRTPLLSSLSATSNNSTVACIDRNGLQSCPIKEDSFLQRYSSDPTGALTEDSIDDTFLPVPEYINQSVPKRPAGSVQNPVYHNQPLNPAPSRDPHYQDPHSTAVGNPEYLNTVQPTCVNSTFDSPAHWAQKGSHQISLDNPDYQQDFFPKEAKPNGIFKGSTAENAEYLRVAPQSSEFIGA
Experimental: Example 2: EGFR L858R & Del19/T790M Assay Protocol (to Find the IC50 for the Compounds Using HTRF Method)
Reagents for Enzyme Assay:
• 1. Enzyme Assay Buffer: 60 mM HEPES (pH 7.4), 50 mM NaCl, 20 mM MgCl2, 5 mM MnCl2, filtered using 0.2 μm pore size, stored at 4° C. • Supplements (added fresh to the enzyme buffer): 1M DTT stock was made, 5% BSA stock and 0.1M Na3OV4 stored at 4° C. Enzyme assay buffer 50 mL, 1 M DTT 100 μL, 5% BSA 500 μL, 0.1 M Na3OV4 50 μL. • 2. GST-hEGFR (L858R), active: EGFR (T790M/L858R), active (Proqinase), 3.6 μM stock; 2.5 nM in final assay. • 3. Gastrin Precusor-Biotinylated: Gastrin precursor (Tyr87) biotinylated peptide, EEAY*GWM, Cell Signaling Tech 1310, Lot-7, Want final 0.5 μM in assay. • 4. ATP: 10 mM stock in 100 μL Enzyme assay buffer pH 7.4 prepared freshly, want 5 μM in final assay. • 5. Test compounds: Powders were dissolved in 100% DMSO and made up to a final stock concentration of 10 mM (volume in μL to add for 10 mM=mg powder X 10^5/MW). Final compound concentration in the assay plate started at 10 μM.
• 1. HTRF buffer: 50 mM Tris —HCl, pH-7.5, 100 mM NaCl, 0.1% BSA, 0.05% Tween20, 0.5 mM EDTA, filtered using 0.2 μm pore size, stored at 4° C. • Phycolink® Streptavidin-Allophycocyanin (SA-APC) Prozyme, Cat. #PJ25S, Lot #896 085, 2.06 mg/mL, APC concentration is 11.6 μM, streptavidin concentration is 15.5 μM. Want 12 nM final in assay (based on streptavidin concentration). • 2. (Europium) Eu-W1024 Anti-phosphotyrosine (PT-66) Antibody: Perkin Elmer (Product Number: AD0068), monoclonal IgG1 that recognizes phosphotyrosine peptide 100 μg/ml stock. Want 0.1 nM final in assay.
• 1. The compound dilution was made by TECAN as per the above scheme. • 2. 16 μL of diluted compound was added to the assay plate by using TECAN. • 3. 10 μL of enzyme mix was added to each well except mins. • 4. 20 μL of substrate and ATP mix were added into each well of the assay plate, manually. • 5. The plate was incubated on a laboratory shaker at room temperature for 60 min. • 6. Meanwhile, the HTRF mix was prepared and 75 μL was added to the HTRF plate. • 7. When the incubation was over, 10 μL of the reaction mixture was transferred to the HTRF assay plate and incubated on a laboratory shaker for 30 min at room temperature. • 8. The reading was taken in Pherastar (ext 337 nm, Em 665 & 620 nm). • 9. The results were analyzed using Graphpad prism after calculation of the z factor, signal window and % inhibition to get the IC50.

[4] = molecular target: HER2 (A775_G776insYVMA) expressing Ba/F3 stable cell line (Homo sapiens, UniProt P04626, DUP772-775, cells depend on it); assay: Cellular proliferation (Alamar Blue) assay, HER2 YVMA Ba/F3; assay type: cell-based; settings: HER2 A775_G776insYVMA Ba/F3, 72 hr, read-out: YVMA IC50
HER2 (A775_G776insYVMA) expressing Ba/F3 stable cell line, sequence (P04626 with tags, fused parts or gaps DUP772-775): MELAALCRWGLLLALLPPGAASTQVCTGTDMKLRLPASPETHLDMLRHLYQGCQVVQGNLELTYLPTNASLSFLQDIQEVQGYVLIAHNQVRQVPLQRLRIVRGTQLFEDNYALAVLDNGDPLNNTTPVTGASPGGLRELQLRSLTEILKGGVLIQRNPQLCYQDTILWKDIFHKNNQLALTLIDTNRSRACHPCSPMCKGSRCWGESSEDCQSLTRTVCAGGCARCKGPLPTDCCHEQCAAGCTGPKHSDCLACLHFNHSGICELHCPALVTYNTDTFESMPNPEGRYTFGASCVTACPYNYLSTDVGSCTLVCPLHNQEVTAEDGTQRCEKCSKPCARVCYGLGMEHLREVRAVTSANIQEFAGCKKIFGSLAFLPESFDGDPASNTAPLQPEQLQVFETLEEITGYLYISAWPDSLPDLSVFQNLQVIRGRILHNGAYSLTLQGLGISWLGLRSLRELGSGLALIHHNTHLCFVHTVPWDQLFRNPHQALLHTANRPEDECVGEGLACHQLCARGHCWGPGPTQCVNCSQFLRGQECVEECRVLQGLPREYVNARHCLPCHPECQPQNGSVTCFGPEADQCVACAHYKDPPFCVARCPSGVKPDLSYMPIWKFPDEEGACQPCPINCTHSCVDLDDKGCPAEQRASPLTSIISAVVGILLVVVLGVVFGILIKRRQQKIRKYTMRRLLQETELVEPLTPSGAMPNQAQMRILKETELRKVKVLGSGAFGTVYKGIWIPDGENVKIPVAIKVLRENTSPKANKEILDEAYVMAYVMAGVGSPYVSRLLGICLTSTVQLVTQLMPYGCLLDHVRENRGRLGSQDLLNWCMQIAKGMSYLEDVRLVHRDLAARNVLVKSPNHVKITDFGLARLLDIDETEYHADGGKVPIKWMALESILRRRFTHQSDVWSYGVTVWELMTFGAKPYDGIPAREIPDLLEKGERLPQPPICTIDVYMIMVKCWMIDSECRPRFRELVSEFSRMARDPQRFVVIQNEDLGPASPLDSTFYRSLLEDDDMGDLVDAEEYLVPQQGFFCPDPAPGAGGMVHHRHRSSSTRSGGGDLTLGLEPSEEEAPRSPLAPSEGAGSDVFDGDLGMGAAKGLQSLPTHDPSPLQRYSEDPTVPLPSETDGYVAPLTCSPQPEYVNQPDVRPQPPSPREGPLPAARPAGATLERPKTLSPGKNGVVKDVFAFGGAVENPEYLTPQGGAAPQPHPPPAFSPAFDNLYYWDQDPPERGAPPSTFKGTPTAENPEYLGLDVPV
Method in brief: as §1

Row | IC50 (A431 cells) | EC50 [1] | GI50 [2] | GI50 [3] | IC50 (EGFR (T790M/L858R)) | GI50 [4] | SMILES
1 | 638 nM | 4.5 nM | 108 nM | 105 nM | 4 nM |  | CC(c1ccccc1)N1Cc2cnc(Nc3cnn(C)c3)nc2N(c2cccc(NC(=O)/C=C/CN(C)C)c2)C1=O (racemic) [Compound 10, (E)-4-(dimethylamino)-N-(3-(7-((1-methyl-1H-pyrazol-4-yl)amino)-2-oxo-3-(1-phenylethyl)-3,4-dihydropyrimido[4,5-d]pyrimidin-1(2H)-yl)phenyl)but-2-enamide]
2 | ≥ 10000 nM | 372 nM | ≥ 10000 nM | ≥ 10000 nM | 167 nM |  | C=CC(=O)N1CCC(N2C(=O)N(Cc3ccccc3)Cc3cnc(Nc4cn(C)nc4Cl)nc32)C1 (racemic) [Compound 37, 1-(1-acryloylpyrrolidin-3-yl)-3-benzyl-7-((3-chloro-1-methyl-1H-pyrazol-4-yl)amino)-3,4-dihydropyrimido[4,5-d]pyrimidin-2(1H)-one]
3 | ≥ 10000 nM | 637 nM | 9350 nM | ≥ 10000 nM | 112 nM |  | C=CC(=O)N1CC[C@H](N2C(=O)N(Cc3ccccc3)Cc3cnc(Nc4cn(C)nc4Cl)nc32)C1 (single isomer, unassigned) [Compound 39]
4 | 615 nM | 19.7 nM | 893 nM | 414 nM | 2 nM |  | CN(C)C/C=C/C(=O)Nc1cccc(N2C(=O)N(Cc3ccc(F)cc3)Cc3cnc(Nc4cnn(C)c4)nc32)c1 [Compound 2, (E)-4-(dimethylamino)-N-(3-(3-(4-fluorobenzyl)-7-((1-methyl-1H-pyrazol-4-yl)amino)-2-oxo-3,4-dihydropyrimido[4,5-d]pyrimidin-1(2H)-yl)phenyl)but-2-enamide]
5 | 676 nM | 40.9 nM | 131 nM | 184 nM | 13 nM |  | C=CC(=O)Nc1cccc(N2C(=O)N(Cc3ccc(F)cc3)Cc3cnc(Nc4cnn(C)c4)nc32)c1 [Compound 3, N-(3-(3-(4-fluorobenzyl)-7-((1-methyl-1H-pyrazol-4-yl)amino)-2-oxo-3,4-dihydropyrimido[4,5-d]pyrimidin-1(2H)-yl)phenyl)acrylamide]
6 | 78 nM | 4.9 nM | 40 nM | 57 nM | 2.4 nM |  | C=CC(=O)Nc1cccc(N2C(=O)N(Cc3ccccc3)Cc3cnc(Nc4cnn(C)c4C)nc32)c1 [Compound 4, N-(3-(3-benzyl-7-((1,5-dimethyl-1H-pyrazol-4-yl)amino)-2-oxo-3,4-dihydropyrimido[4,5-d]pyrimidin-1(2H)-yl)phenyl)acrylamide]
7 |  | 5.7 nM |  |  | 1 nM |  | C=CC(=O)Nc1cccc(N2C(=O)N(Cc3ccccc3)Cc3cnc(Nc4cnn(C5CC5)c4)nc32)c1 [Compound 5, N-(3-(3-benzyl-7-((1-cyclopropyl-1H-pyrazol-4-yl)amino)-2-oxo-3,4-dihydropyrimido[4,5-d]pyrimidin-1(2H)-yl)phenyl)acrylamide]
8 |  | 9.3 nM |  |  | 6 nM |  | CN(C)C/C=C/C(=O)Nc1cccc(N2C(=O)N(Cc3ccccc3)Cc3cnc(Nc4cnn(C5CC5)c4)nc32)c1 [Compound 7, (E)-N-(3-(3-benzyl-7-((1-cyclopropyl-1H-pyrazol-4-yl)amino)-2-oxo-3,4-dihydropyrimido[4,5-d]pyrimidin-1(2H)-yl)phenyl)-4-(dimethylamino)but-2-enamide]
9 | 580 nM | 9.2 nM | 108 nM | 103 nM | 9 nM |  | Cc1nn(CC(F)(F)F)cc1Nc1ncc2c(n1)N(c1cccc(NC(=O)/C=C/CN(C)C)c1)C(=O)N(Cc1ccccc1)C2 [Compound 8, (E)-N-(3-(3-benzyl-7-((3-methyl-1-(2,2,2-trifluoroethyl)-1H-pyrazol-4-yl)amino)-2-oxo-3,4-dihydropyrimido[4,5-d]pyrimidin-1(2H)-yl)phenyl)-4-(dimethylamino)but-2-enamide]
10 | 1710 nM | 9.6 nM | 2430 nM | 1150 nM | 2 nM |  | Cc1c(Nc2ncc3c(n2)N(c2cccc(NC(=O)/C=C/CN(C)C)c2)C(=O)N(Cc2ccccc2)C3)cnn1C [Compound 11, (E)-N-(3-(3-benzyl-7-((1,5-dimethyl-1H-pyrazol-4-yl)amino)-2-oxo-3,4-dihydropyrimido[4,5-d]pyrimidin-1(2H)-yl)phenyl)-4-(dimethylamino)but-2-enamide]
11 | 1240 nM | 6.6 nM | 134 nM | 106 nM | 3 nM |  | CN(C)C/C=C/C(=O)Nc1cccc(N2C(=O)N(Cc3ccccc3)Cc3cnc(Nc4cnn(CC(F)(F)F)c4)nc32)c1 [Compound 12, (E)-N-(3-(3-benzyl-2-oxo-7-((1-(2,2,2-trifluoroethyl)-1H-pyrazol-4-yl)amino)-3,4-dihydropyrimido[4,5-d]pyrimidin-1(2H)-yl)phenyl)-4-(dimethylamino)but-2-enamide]
12 |  | 0.7 nM |  |  | 0.5 nM |  | C=CC(=O)Nc1cccc(N2C(=O)N(c3ccc(F)cc3)Cc3cnc(Nc4cnn(C)c4)nc32)c1 [Compound 17, N-(3-(3-(4-fluorophenyl)-7-((1-methyl-1H-pyrazol-4-yl)amino)-2-oxo-3,4-dihydropyrimido[4,5-d]pyrimidin-1(2H)-yl)phenyl)acrylamide]
13 |  | 16 nM |  |  | 6 nM |  | Cc1cnc(Nc2ncc3c(n2)N(c2cccc(NC(=O)/C=C/CN(C)C)c2)C(=O)N(Cc2ccccc2)C3)s1 [Compound 19, (E)-N-(3-(3-benzyl-7-((5-methylthiazol-2-yl)amino)-2-oxo-3,4-dihydropyrimido[4,5-d]pyrimidin-1(2H)-yl)phenyl)-4-(dimethylamino)but-2-enamide]
14 |  | 9.8 nM |  |  | 8 nM |  | CN(C)C/C=C/C(=O)Nc1cccc(N2C(=S)N(c3ccccc3)Cc3cnc(Nc4cn(C)nc4Cl)nc32)c1 [Compound 51, (E)-N-(3-(7-((3-chloro-1-methyl-1H-pyrazol-4-yl)amino)-3-phenyl-2-thioxo-3,4-dihydropyrimido[4,5-d]pyrimidin-1(2H)-yl)phenyl)-4-(dimethylamino)but-2-enamide]
15 | > 10000 nM |  | 29 nM | 15 nM |  | 63 nM | C=CC(=O)Nc1cccc(N2C(=O)N(c3ccccc3)Cc3cnc(Nc4cn(C5COC5)nc4Cl)nc32)c1 [Compound 136, N-(3-(7-((3-chloro-1-(oxetan-3-yl)-1H-pyrazol-4-yl)amino)-2-oxo-3-phenyl-3,4-dihydropyrimido[4,5-d]pyrimidin-1(2H)-yl)phenyl)acrylamide]
